# Experimental data taken from patent publication US11311520B2, “Substituted dihydroimidazopyridinediones as MKNK1 and MKNK2 inhibitors” (Bayer Pharma Aktiengesellschaft, priority 2017, dated 2022).
# Counter-ions that a name gives are not always drawn.
# Biological target: human full-length MKNK1 (Homo sapiens (Human), UniProt Q9BUB5, T344D)
# Assay: MKNK1 kinase high ATP assay (TR-FRET)
# Type: biochemical
# Conditions: 2 mM ATP, 15 min preincubation with enzyme, GST-MKNK1 (T344D)
# Method: MKNK1 Kinase High ATP Assay
# MKNK1-inhibitory activity at high ATP of compounds of the present invention after their preincubation with MKNK1 was quantified employing the TR-FRET-based MKNK1 high ATP assay as described in the following paragraphs.
# A recombinant fusion protein of Glutathione-S-Transferase (GST, N-terminally) and human full-length MKNK1 (amino acids 1-424 and T344D of accession number BAA 19885.1), expressed in insect cells using baculovirus expression system and purified via glutathione sepharose affinity chromatography, was purchased from Carna Biosciences (product no 02-145) and used as enzyme. As substrate for the kinase reaction the biotinylated peptide biotin-Ahx-IKKRKLTRRKSLKG (SEQ ID NO: 1) (C-terminus in amide form) was used, which can be purchased e.g. from the company Biosyntan (Berlin-Buch, Germany)
# For the assay 50 nL of a 100 fold concentrated solution of the test compound in DMSO was pipetted into a black low volume 384 well microtiter plate (Greiner Bio-One, Frickenhausen, Germany), 2 μL of a solution of MKNK1 in aqueous assay buffer [50 mM HEPES pH 7.5, 5 mM MgCl2, 1.0 mM dithiothreitol, 0.005% (v/v) Nonidet-P40 (Sigma)] was added and the mixture was incubated for […] at 22° C. to allow pre-binding of the test compounds to the enzyme before the start of the kinase reaction. Then the kinase reaction was started by the addition of 3 μL of a solution of adenosine-tri-phosphate (ATP, 3.3 mM=>final conc. in the 5 μL assay volume is 2 mM) and substrate (0.1 μM=>final conc. in the 5 μL assay volume is 0.06 μM) in assay buffer and the resulting mixture was incubated for a reaction time of 30 min at 22° C. The concentration of MKNK1 was adjusted depending of the activity of the enzyme lot and was chosen appropriate to have the assay in the linear range, typical concentrations were in the range of 0.003 μg/mL. The reaction was stopped by the addition of 5 μL of a solution of TR-FRET detection reagents (5 nM streptavidine-XL665 [Cisbio Bioassays, Codolet, France] and 1 nM anti-ribosomal protein S6 (pSer236)-antibody from Invitrogen [#44921G] and 1 nM LANCE EU-W1024 labeled ProteinG [Perkin-Elmer, product no. AD0071]) in an aqueous EDTA-solution (100 mM EDTA, 0.1% (w/v) bovine serum albumin in 50 mM HEPES pH 7.5).
# The resulting mixture was incubated for 1 h at 22° C. to allow the formation of complex between the phosphorylated biotinylated peptide and the detection reagents. Subsequently the amount of phosphorylated substrate was evaluated by measurement of the resonance energy transfer from the Eu-chelate to the streptavidine-XL. Therefore, the fluorescence emissions at 620 nm and 665 nm after excitation at 350 nm were measured in a TR-FRET reader, e.g. a Rubystar (BMG Labtechnologies, Offenburg, Germany) or a Viewlux (Perkin-Elmer). The ratio of the emissions at 665 nm and at […] was taken as the measure for the amount of phosphorylated substrate. The data were normalised (enzyme reaction without inhibitor=0% inhibition, all other assay components but no enzyme=100% inhibition).
# Sequence of human full-length MKNK1 (Q9BUB5 other isoform, or with tags, fused parts or gaps T344D): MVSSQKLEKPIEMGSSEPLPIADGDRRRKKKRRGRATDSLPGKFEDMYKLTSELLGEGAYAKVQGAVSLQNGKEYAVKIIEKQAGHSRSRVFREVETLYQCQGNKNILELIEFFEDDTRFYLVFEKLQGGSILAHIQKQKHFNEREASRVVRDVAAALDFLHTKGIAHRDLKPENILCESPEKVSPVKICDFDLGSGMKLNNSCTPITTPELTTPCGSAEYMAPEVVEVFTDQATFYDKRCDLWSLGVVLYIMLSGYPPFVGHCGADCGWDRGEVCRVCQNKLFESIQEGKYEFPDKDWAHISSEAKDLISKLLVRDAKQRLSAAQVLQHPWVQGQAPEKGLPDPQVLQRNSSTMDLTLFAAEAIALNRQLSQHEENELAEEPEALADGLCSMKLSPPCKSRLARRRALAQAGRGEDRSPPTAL
SMILES,IC50 [nM],IC50 (hydrochloride) [nM]
"CCCNC(=O)Nc1nccc(Nc2cc(C)c3n(c2=O)C2(CCCCC2)NC3=O)n1 [Example 23, 1-{4-[(8′-Methyl-1′,5′-dioxo-1′,5′-dihydro-2′H-spiro[cyclohexane-1,3′-imidazo[1,5-a]pyridin]-6′-yl)amino]pyrimidin-2-yl}-3-propylurea]",337,–
"Cc1cc(Nc2ncnc3[nH]cnc23)c(=O)n2c1C(=O)NC21CCCCC1 [Example 24, 8′-methyl-6′-(9H-purin-6-ylamino)-2′H-spiro[cyclohexane-1,3′-imidazo[1,5-a]pyridine]-1′,5′-dione]",1.5,–
"Cc1cc(Nc2ncnc3sc(C(=O)NCCN(C)C)cc23)c(=O)n2c1C(=O)NC21CCCCC1 [Example 25, N-[2-(Dimethylamino)ethyl]-4-[(8′-methyl-1′,5′-dioxo-1′,5′-dihydro-2′H-spiro[cyclohexane-1,3′-imidazo[1,5-a]pyridin]-6′-yl)amino]thieno[2,3-d]pyrimidine-6-carboxamide]",1.9,–
"Cc1cc(Nc2ncnc3sc(C(=O)N4CC(C#N)C4)cc23)c(=O)n2c1C(=O)NC21CCCCC1 [Example 26, 1-({4-[(8′-Methyl-1′,5′-dioxo-1′,5′-dihydro-2′H-spiro[cyclohexane-1,3′-imidazo[1,5-a]pyridin]-6′-yl)amino]thieno[2,3-d]pyrimidin-6-yl}carbonyl)azetidine-3-carbonitrile]",5,–
"Cc1cc(Nc2ncnc3sc(C(=O)N4CC(NC(=O)OC(C)(C)C)C4)cc23)c(=O)n2c1C(=O)NC21CCCCC1 [Example 27, tert-Butyl [1-({4-[(8′-methyl-1′,5′-dioxo-1′,5′-dihydro-2′H-spiro[cyclohexane-1,3′-imidazo[1,5-a]pyridin]-6′-yl)amino]thieno[2,3-d]pyrimidin-6-yl}carbonyl)azetidin-3-yl]carbamate]",4,–
"Cc1cc(Nc2ncnc3sc(C(=O)N4CC(N)C4)cc23)c(=O)n2c1C(=O)NC21CCCCC1 [Example 28, 6′-({6-[(3-Aminoazetidin-1-yl)carbonyl]thieno[2,3-d]pyrimidin-4-yl}amino)-8′-methyl-2′H-spiro[cyclohexane-1,3′-imidazo[1,5-a]pyridine]-1′,5′-dione]",0.6,–
"Cc1cc(Nc2ncnc3sc(C(=O)N4CC[C@@H](N(C)C)C4)cc23)c(=O)n2c1C(=O)NC21CCCCC1 [Example 29, 6′-[(6-{[(3R)-3-(Dimethylamino)pyrrolidin-1-yl]carbonyl}thieno[2,3-d]pyrimidin-4-yl)amino]-8′-methyl-2′H-spiro[cyclohexane-1,3′-imidazo[1,5-a]pyridine]-1′,5′-dione]",2.9,–
"Cc1cc(Nc2ncnc3sc(C(=O)N4CC[C@H](N(C)C)C4)cc23)c(=O)n2c1C(=O)NC21CCCCC1 [Example 30, 6′-[(6-{[(3S)-3-(Dimethylamino)pyrrolidin-1-yl]carbonyl}thieno[2,3-d]pyrimidin-4-yl)amino]-8′-methyl-2′H-spiro[cyclohexane-1,3′-imidazo[1,5-a]pyridine]-1′,5′-dione]",3.2,–
"Cc1cc(Nc2ncnc3sccc23)c(=O)n2c1C(=O)NC21CCCCC1 [Example 31, 8′-Methyl-6′-(thieno[2,3-d]pyrimidin-4-ylamino)-2′H-spiro[cyclohexane-1,3′-imidazo[1,5-a]pyridine]-1′,5′-dione hydrochloride]",–,16.8
"Cc1cc(Nc2ncnc3sc(C(=O)N(C)C)cc23)c(=O)n2c1C(=O)NC21CCCCC1 [Example 33, N,N-Dimethyl-4-[(8′-methyl-1′,5′-dioxo-1′,5′-dihydro-2′H-spiro[cyclohexane-1,3′-imidazo[1,5-a]pyridin]-6′-yl)amino]thieno[2,3-d]pyrimidine-6-carboxamide hydrochloride]",–,70.7
"Cc1cc(Nc2ncnc3[nH]ncc23)c(=O)n2c1C(=O)NC21CCCCC1 [Example 34, 8′-Methyl-6′-(1H-pyrazolo[3,4-d]pyrimidin-4-ylamino)-2′H-spiro[cyclohexane-1,3′-imidazo[1,5-a]pyridine]-1′,5′-dione hydrochloride]",–,8.1
"Cc1cc(Nc2ncnc3c2CN(C(=O)OC(C)(C)C)C3)c(=O)n2c1C(=O)NC21CCCCC1 [Example 35, tert-Butyl 4-[(8′-methyl-1′,5′-dioxo-1′,5′-dihydro-2′H-spiro[cyclohexane-1,3′-imidazo[1,5-a]pyridin]-6′-yl)amino]-5,7-dihydro-6H-pyrrolo[3,4-d]pyrimidine-6-carboxylate]",4.1,–
"Cc1cc(Nc2ncnc3c2CNC3)c(=O)n2c1C(=O)NC21CCCCC1 [Example 36, 6′-(6,7-Dihydro-5H-pyrrolo[3,4-d]pyrimidin-4-ylamino)-8′-methyl-2′H-spiro[cyclohexane-1,3′-imidazo[1,5-a]pyridine]-1′,5′-dione]",19.1,–
"Cc1cc(Nc2ncnc3nc(CC(F)(F)F)[nH]c23)c(=O)n2c1C(=O)NC21CCCCC1 [Example 37, 8′-Methyl-6′-{[8-(2,2,2-trifluoroethyl)-7H-purin-6-yl]amino}-2′H-spiro[cyclohexane-1,3′-imidazo[1,5-a]pyridine]-1′,5′-dione]",10.3,–
"Cc1cc(Nc2ncnc3oc(C)c(C)c23)c(=O)n2c1C(=O)NC21CCCCC1 [Example 38, 6′-[(5,6-Dimethylfuro[2,3-d]pyrimidin-4-yl)amino]-8′-methyl-2′H-spiro[cyclohexane-1,3′-imidazo[1,5-a]pyridine]-1′,5′-dione]",79.9,–
"Cc1cc(Nc2ncnc(NC(=O)C3CC3)n2)c(=O)n2c1C(=O)NC2(C)C [Example 40, N-[4-[(3,3,8-Trimethyl-1,5-dioxo-1,2,3,5-tetrahydroimidazo[1,5-a]pyridin-6-yl)amino]-1,3,5-triazin-2-yl]cyclopropanecarboxamide]",20.7,–
"Cc1cc(Nc2ncnc3cccc(F)c23)c(=O)n2c1C(=O)NC21CCCCC1 [Example 41, 6′-[(5-Fluoroquinazolin-4-yl)amino]-8′-methyl-2′H-spiro[cyclohexane-1,3′-imidazo[1,5-a]pyridine]-1′,5′-dione]",14,–
"Cc1cc(Nc2ncnc3sc(C(=O)N4C[C@H]5C[C@@H]4CN5C)cc23)c(=O)n2c1C(=O)NC21CCCCC1 [Example 42, 8′-Methyl-6′-[(6-{[(1R,4R)-5-methyl-2,5-diazabicyclo[2.2.1]hept-2-yl]carbonyl}thieno[2,3-d]pyrimidin-4-yl)amino]-2′H-spiro[cyclohexane-1,3′-imidazo[1,5-a]pyridine]-1′,5′-dione]",1.9,–
"Cc1cc(Nc2ncnc3sc(C(=O)N4C[C@@H]5C[C@H]4CN5C)cc23)c(=O)n2c1C(=O)NC21CCCCC1 [Example 43, 8′-Methyl-6′-[(6-{[(1S,4S)-5-methyl-2,5-diazabicyclo[2.2.1]hept-2-yl]carbonyl}thieno[2,3-d]pyrimidin-4-yl)amino]-2′H-spiro[cyclohexane-1,3′-imidazo[1,5-a]pyridine]-1′,5′-dione]",2.9,–
"Cc1cc(Nc2ncnc3c2ncn3CCO)c(=O)n2c1C(=O)NC21CCCCC1 [Example 44, 6′-{[9-(2-Hydroxyethyl)-9H-purin-6-yl]amino}-8′-methyl-2′H-spiro[cyclohexane-1,3′-imidazo[1,5-a]pyridine]-1′,5′-dione]",465,–
"CCOC(=O)Cn1cnc2c(Nc3cc(C)c4n(c3=O)C3(CCCCC3)NC4=O)ncnc21 [Example 45, Ethyl {6-[(8′-methyl-1′,5′-dioxo-1′,5′-dihydro-2′H-spiro[cyclohexane-1,3′-imidazo[1,5-a]pyridin]-6′-yl)amino]-9H-purin-9-yl}acetate]",603,–
"Cc1cc(Nc2ncnc3ccc(Cl)cc23)c(=O)n2c1C(=O)NC21CCCCC1 [Example 46, 6′-[(6-Chloroquinazolin-4-yl)amino]-8′-methyl-2′H-spiro[cyclohexane-1,3′-imidazo[1,5-a]pyridine]-1′,5′-dione]",4.1,–
"Cc1cc(Nc2ncnc3c2ncn3[C@H]2O[C@@H](CO)[C@H](O)[C@H]2O)c(=O)n2c1C(=O)NC21CCCCC1 [Example 47, N-[9-(beta-L-Arabinofuranosyl)-9H-purin-6-yl]-8′-methyl-1′,5′-dioxo-1′,5′-dihydro-2′H-spiro[cyclohexane-1,3′-imidazo[1,5-a]pyridin]-6′-amine]",47.2,–
